In PMC5218480 (PLoS ONE, 2017):

Tested on: MV-4-11 cells
Assay: Gene expression microarray analysis (Affymetrix PrimeView) and GSEA
Type: cell-based, human
Set-up: RFU PODN (11730768_x_at) / Fold change /veh PODN (11730768_x_at) / RFU LINC00158 (11744669_a_at) / Fold change /veh LINC00158 (11744669_a_at) / RFU DUSP10 (11751237_a_at) / Fold change /veh DUSP10 (11751237_a_at) / RFU ID3 (11757404_x_at) / Fold change /veh ID3 (11757404_x_at) / RFU PLEKHG5 (11737974_s_at) / Fold change /veh PLEKHG5 (11737974_s_at) / RFU LRRC4B (11730491_at) / Fold change /veh LRRC4B (11730491_at) / RFU GIMAP4 (11747438_a_at) / Fold change /veh GIMAP4 (11747438_a_at) / RFU KRT8 (11758183_x_at) / Fold change /veh KRT8 (11758183_x_at) / RFU CNN1 (11734310_a_at) / Fold change /veh CNN1 (11734310_a_at) / RFU VPS37D (11726825_at) / Fold change /veh VPS37D (11726825_at) / RFU C10orf10 (11716522_x_at) / Fold change /veh C10orf10 (11716522_x_at) / RFU KIR2DL2 /// KIR2DL4 /// KIR2DL5A /// KIR2DL5B /// KIR2DS1 /// KIR2DS2 /// KIR2DS3 /// KIR2DS4 /// KIR3DL3 /// KIR3DL3 /// KIR3DS1 (11738374_at) / Fold change /veh KIR2DL2 /// KIR2DL4 /// KIR2DL5A /// KIR2DL5B /// KIR2DS1 /// KIR2DS2 /// KIR2DS3 /// KIR2DS4 /// KIR3DL3 /// KIR3DL3 /// KIR3DS1 (11738374_at) / RFU C1QL1 (11718748_at) / Fold change /veh C1QL1 (11718748_at) / RFU TMPRSS4 (11747572_a_at) / Fold change /veh TMPRSS4 (11747572_a_at) / RFU HAMP (11756126_x_at) / Fold change /veh HAMP (11756126_x_at) / RFU RNFT2 (11725882_a_at) / Fold change /veh RNFT2 (11725882_a_at) / RFU NR4A2 (11747474_a_at) / Fold change /veh NR4A2 (11747474_a_at) / RFU ABCC12 (11746883_a_at) / Fold change /veh ABCC12 (11746883_a_at) / RFU TMEM136 (11760407_x_at) / Fold change /veh TMEM136 (11760407_x_at) / RFU CLDN22 /// WWC2 (11732394_at) / Fold change /veh CLDN22 /// WWC2 (11732394_at) / RFU HLA-DPB1 (11760878_x_at) / Fold change /veh HLA-DPB1 (11760878_x_at) / RFU SPINT1 (11716480_a_at) / Fold change /veh SPINT1 (11716480_a_at) / RFU GAP43 (11754022_s_at) / Fold change /veh GAP43 (11754022_s_at) / RFU A4GNT (11735810_at) / Fold change /veh A4GNT (11735810_at) / RFU PRB3 (11715151_x_at) / Fold change /veh PRB3 (11715151_x_at) / RFU TUBB4B (11761932_at) / Fold change /veh TUBB4B (11761932_at) / RFU CAPN14 (11732068_a_at) / Fold change /veh CAPN14 (11732068_a_at) / RFU TMCC2 (11721928_a_at) / Fold change /veh TMCC2 (11721928_a_at) / RFU IRGQ (11745062_a_at) / Fold change /veh IRGQ (11745062_a_at) / RFU FAM174B (11720279_a_at) / Fold change /veh FAM174B (11720279_a_at) / RFU TMPRSS4 (11748680_a_at) / Fold change /veh TMPRSS4 (11748680_a_at) / RFU FAM212B (11763350_a_at) / Fold change /veh FAM212B (11763350_a_at) / RFU PLEKHG5 (11743358_a_at) / Fold change /veh PLEKHG5 (11743358_a_at) / RFU ZSCAN30 (11745921_a_at) / Fold change /veh ZSCAN30 (11745921_a_at) / RFU CMKLR1 (11741424_a_at) / Fold change /veh CMKLR1 (11741424_a_at) / RFU LOC101060620 /// MAPK8IP1 (11723275_at) / Fold change /veh LOC101060620 /// MAPK8IP1 (11723275_at) / RFU SPTSSB (11747773_x_at) / Fold change /veh SPTSSB (11747773_x_at) / RFU PRSS12 (11739890_at) / Fold change /veh PRSS12 (11739890_at) / RFU BIN1 (11741810_x_at) / Fold change /veh BIN1 (11741810_x_at) / RFU WNT11 (11732464_a_at) / Fold change /veh WNT11 (11732464_a_at) / RFU C10orf10 (11716521_a_at) / Fold change /veh C10orf10 (11716521_a_at) / RFU C5orf56 (11738089_at) / Fold change /veh C5orf56 (11738089_at) / RFU CYB561 (11721691_x_at) / Fold change /veh CYB561 (11721691_x_at) / RFU ANKRD19P (11752326_a_at) / Fold change /veh ANKRD19P (11752326_a_at) / RFU OR2T12 /// OR2T33 /// OR2T8 (11738714_s_at) / Fold change /veh OR2T12 /// OR2T33 /// OR2T8 (11738714_s_at) / RFU VCAN (11748164_a_at) / Fold change /veh VCAN (11748164_a_at) / RFU JSRP1 (11732532_at) / Fold change /veh JSRP1 (11732532_at) / RFU KRTAP10-11 (11738290_x_at) / Fold change /veh KRTAP10-11 (11738290_x_at) / RFU MYO3A (11730013_a_at) / Fold change /veh MYO3A (11730013_a_at) / RFU EBF3 (11725865_a_at) / Fold change /veh EBF3 (11725865_a_at) / RFU CAMK2N1 (11719241_x_at) / Fold change /veh CAMK2N1 (11719241_x_at) / RFU C5orf56 (11738088_a_at) / Fold change /veh C5orf56 (11738088_a_at) / RFU OLFML3 (11715873_a_at) / Fold change /veh OLFML3 (11715873_a_at) / RFU LOC100653217 /// NTM (11731650_a_at) / Fold change /veh LOC100653217 /// NTM (11731650_a_at) / RFU MAPK11 (11762145_a_at) / Fold change /veh MAPK11 (11762145_a_at) / RFU FIZ1 (11724087_x_at) / Fold change /veh FIZ1 (11724087_x_at) / RFU OASL (11726364_x_at) / Fold change /veh OASL (11726364_x_at) / RFU SOX15 (11748057_x_at) / Fold change /veh SOX15 (11748057_x_at) / RFU CD79A (11719716_a_at) / Fold change /veh CD79A (11719716_a_at) / RFU HIST1H1D (11736915_at) / Fold change /veh HIST1H1D (11736915_at) / RFU CASKIN2 (11723855_a_at) / Fold change /veh CASKIN2 (11723855_a_at) / RFU LOC730098 (11760151_x_at) / Fold change /veh LOC730098 (11760151_x_at) / RFU OR4N2 (11742367_at) / Fold change /veh OR4N2 (11742367_at) / RFU PRRT2 (11749266_a_at) / Fold change /veh PRRT2 (11749266_a_at) / RFU SNX32 (11753110_a_at) / Fold change /veh SNX32 (11753110_a_at) / RFU CDHR5 (11726645_a_at) / Fold change /veh CDHR5 (11726645_a_at) / RFU RCAN1 (11760418_a_at) / Fold change /veh RCAN1 (11760418_a_at) / RFU FAM167A (11723789_a_at) / Fold change /veh FAM167A (11723789_a_at) / RFU FAM26E (11764081_at) / Fold change /veh FAM26E (11764081_at) / RFU ISYNA1 (11749810_s_at) / Fold change /veh ISYNA1 (11749810_s_at) / RFU ACY1 (11761880_at) / Fold change /veh ACY1 (11761880_at) / RFU 11764098_at / Fold change /veh 11764098_at / RFU SAMD14 (11745864_x_at) / Fold change /veh SAMD14 (11745864_x_at) / RFU NPB (11741838_a_at) / Fold change /veh NPB (11741838_a_at) / RFU TMPRSS6 (11731388_a_at) / Fold change /veh TMPRSS6 (11731388_a_at) / RFU KRTAP10-2 (11738614_at) / Fold change /veh KRTAP10-2 (11738614_at) / RFU ARHGAP8 /// PRR5-ARHGAP8 (11727945_x_at) / Fold change /veh ARHGAP8 /// PRR5-ARHGAP8 (11727945_x_at) / RFU KRTAP5-7 /// NADSYN1 (11734609_at) / Fold change /veh KRTAP5-7 /// NADSYN1 (11734609_at) / RFU RASL12 (11751679_a_at) / Fold change /veh RASL12 (11751679_a_at) / RFU CDKN2B (11736163_a_at) / Fold change /veh CDKN2B (11736163_a_at) / RFU PRF1 (11729649_at) / Fold change /veh PRF1 (11729649_at) / RFU, ZNF638 /// ZNF638-IT1 / Fold change vs veh, ZNF638 /// ZNF638-IT1 / RFU, PANK3 / Fold change vs veh, PANK3 / RFU, SH3YL1 / Fold change vs veh, SH3YL1 / RFU, ZEB2 / Fold change vs veh, ZEB2 / RFU, NRIP1 / Fold change vs veh, NRIP1 / RFU, PTTG1IP / Fold change vs veh, PTTG1IP / RFU, CAPN2 / Fold change vs veh, CAPN2 / RFU, MED14 / Fold change vs veh, MED14 / RFU, SNORA58 / Fold change vs veh, SNORA58 / RFU, C1orf63 / Fold change vs veh, C1orf63 / RFU, LRRFIP1 / Fold change vs veh, LRRFIP1 / RFU, NDUFAF7 / Fold change vs veh, NDUFAF7 / RFU, SLC12A2 / Fold change vs veh, SLC12A2 / RFU, IBTK / Fold change vs veh, IBTK / RFU, ESF1 / Fold change vs veh, ESF1 / Fold change vs veh, TMEM50B / RFU, TAOK1 / Fold change vs veh, TAOK1 / RFU, ACBD3 / Fold change vs veh, ACBD3 / RFU, TMA16 / Fold change vs veh, TMA16 / RFU, RWDD3 / Fold change vs veh, RWDD3 / RFU, BCAT1 / Fold change vs veh, BCAT1 / RFU, EDEM3 / Fold change vs veh, EDEM3 / RFU, TMEM33 / Fold change vs veh, TMEM33 / RFU, WDR75 / Fold change vs veh, WDR75 / RFU, AHCTF1 / Fold change vs veh, AHCTF1 / RFU, TFRC / Fold change vs veh, TFRC / RFU, ZDHHC17 / Fold change vs veh, ZDHHC17 / RFU, NOM1 / Fold change vs veh, NOM1 / RFU, ARL8B / Fold change vs veh, ARL8B / RFU, ZBTB11 / Fold change vs veh, ZBTB11 / RFU, TAMM41 / Fold change vs veh, TAMM41 / RFU, KIAA1704 /// LOC100996395 / Fold change vs veh, KIAA1704 /// LOC100996395 / RFU, ING1 / Fold change vs veh, ING1 / RFU, TRMT61B / Fold change vs veh, TRMT61B / RFU, FUBP3 / Fold change vs veh, FUBP3 / RFU, TP53 / Fold change vs veh, TP53 / RFU, TNKS2 / Fold change vs veh, TNKS2 / RFU, ZFP14 / Fold change vs veh, ZFP14 / RFU, ACTR2 / Fold change vs veh, ACTR2 / RFU, PPP3R1 / Fold change vs veh, PPP3R1 / RFU, PIK3R1 / Fold change vs veh, PIK3R1 / RFU, HNRNPA1 / Fold change vs veh, HNRNPA1 / RFU, RNF170 / Fold change vs veh, RNF170 / RFU, ZNF28 / Fold change vs veh, ZNF28 / RFU, RNGTT / Fold change vs veh, RNGTT / RFU, OGT / Fold change vs veh, OGT / RFU, BRD1 / Fold change vs veh, BRD1 / RFU, MARS / Fold change vs veh, MARS / RFU, ZNF655 / Fold change vs veh, ZNF655 / RFU, FAHD1 / Fold change vs veh, FAHD1 / RFU, BDP1 / Fold change vs veh, BDP1 / RFU, LRRCC1 / Fold change vs veh, LRRCC1 / RFU, ARID1A / Fold change vs veh, ARID1A / RFU, ZNF146 / Fold change vs veh, ZNF146 / RFU, ZNF330 / Fold change vs veh, ZNF330 / RFU, GPN3 / Fold change vs veh, GPN3 / RFU, C9orf123 / Fold change vs veh, C9orf123 / RFU, N4BP2L2 / Fold change vs veh, N4BP2L2 / RFU, ARFIP1 / Fold change vs veh, ARFIP1 / RFU, FAM179B / Fold change vs veh, FAM179B / RFU, BCL10 / Fold change vs veh, BCL10 / RFU, UHRF1BP1L / Fold change vs veh, UHRF1BP1L / RFU, BET1 / Fold change vs veh, BET1 / RFU, CNOT2 / Fold change vs veh, CNOT2 / RFU, ZNF268 / Fold change vs veh, ZNF268 / Fold change vs veh, ZNF507 / RFU, DGCR2 / Fold change vs veh, DGCR2 / RFU, WDSUB1 / Fold change vs veh, WDSUB1 / Fold change vs veh, HSP90B1 /// MIR3652 / RFU, ADSS / Fold change vs veh, ADSS / RFU, GK / Fold change vs veh, GK / RFU, ZNF148 / Fold change vs veh, ZNF148 / RFU, TAF9 / Fold change vs veh, TAF9 / RFU, SLC1A5 / Fold change vs veh, SLC1A5 / RFU, SLMO2 / Fold change vs veh, SLMO2 / RFU, ABCC4 / Fold change vs veh, ABCC4 / RFU, LOC101060439 /// RAP1B / Fold change vs veh, LOC101060439 /// RAP1B / RFU, RFX7 / Fold change vs veh, RFX7 / RFU, GTPBP10 / Fold change vs veh, GTPBP10 / RFU, CNEP1R1 / Fold change vs veh, CNEP1R1 / RFU, BIVM-ERCC5 /// ERCC5 / Fold change vs veh, BIVM-ERCC5 /// ERCC5 / RFU, ILF3 / Fold change vs veh, ILF3 / RFU 11762660_at / Fold change /veh 11762660_at / RFU VCAN (11757783_s_at) / Fold change /veh VCAN (11757783_s_at) / RFU DDX43 (11728927_at) / Fold change /veh DDX43 (11728927_at) / RFU KRT8 (11758188_x_at) / Fold change /veh KRT8 (11758188_x_at) / RFU NKD1 (11759106_at) / Fold change /veh NKD1 (11759106_at) / RFU SRD5A1 (11742802_a_at) / Fold change /veh SRD5A1 (11742802_a_at) / RFU TPSAB1 /// TPSB2 (11721975_s_at) / Fold change /veh TPSAB1 /// TPSB2 (11721975_s_at) / RFU GSTM3 (11746129_a_at) / Fold change /veh GSTM3 (11746129_a_at) / RFU IL23R (11737362_x_at) / Fold change /veh IL23R (11737362_x_at) / RFU TMEM51 (11727254_a_at) / Fold change /veh TMEM51 (11727254_a_at) / RFU PIWIL2 (11732686_x_at) / Fold change /veh PIWIL2 (11732686_x_at) / RFU ORM1 (11744905_x_at) / Fold change /veh ORM1 (11744905_x_at) / RFU CCDC152 (11743942_at) / Fold change /veh CCDC152 (11743942_at) / RFU ECM1 (11717891_a_at) / Fold change /veh ECM1 (11717891_a_at) / RFU IL23R (11748794_a_at) / Fold change /veh IL23R (11748794_a_at) / RFU TNFAIP8L3 (11732012_x_at) / Fold change /veh TNFAIP8L3 (11732012_x_at) / RFU MBOAT4 (11741988_at) / Fold change /veh MBOAT4 (11741988_at) / RFU 11764193_at / Fold change /veh 11764193_at / RFU TMEM53 (11763286_at) / Fold change /veh TMEM53 (11763286_at) / RFU MAGEB2 (11727129_at) / Fold change /veh MAGEB2 (11727129_at) / RFU TMEM200A (11744735_a_at) / Fold change /veh TMEM200A (11744735_a_at) / RFU CCDC152 (11751479_a_at) / Fold change /veh CCDC152 (11751479_a_at) / RFU FAM211A (11726209_a_at) / Fold change /veh FAM211A (11726209_a_at) / RFU RGS16 (11746705_a_at) / Fold change /veh RGS16 (11746705_a_at) / RFU VCAN (11755009_s_at) / Fold change /veh VCAN (11755009_s_at) / RFU RHOB (11743442_s_at) / Fold change /veh RHOB (11743442_s_at) / RFU RGS16 (11720943_a_at) / Fold change /veh RGS16 (11720943_a_at) / RFU RGS16 (11720944_at) / Fold change /veh RGS16 (11720944_at) / RFU, VPS4B / Fold change vs veh, VPS4B / RFU, CREB1 / Fold change vs veh, CREB1 / RFU, DNAJC13 / Fold change vs veh, DNAJC13 / RFU, GNAQ / Fold change vs veh, GNAQ / RFU, CDK5R1 / Fold change vs veh, CDK5R1 / RFU, ZRANB3 / Fold change vs veh, ZRANB3 / RFU, CUL4A / Fold change vs veh, CUL4A / RFU, CCNY / Fold change vs veh, CCNY / RFU, UFL1 / Fold change vs veh, UFL1 / RFU, COG3 / Fold change vs veh, COG3 / RFU, DIAPH2 / Fold change vs veh, DIAPH2 / RFU, SKA2 / Fold change vs veh, SKA2 / RFU, AFF3 / Fold change vs veh, AFF3 / RFU, LMF1 / Fold change vs veh, LMF1 / RFU, IPO11 / Fold change vs veh, IPO11 / RFU, DFFB / Fold change vs veh, DFFB / RFU, FOXP1 / Fold change vs veh, FOXP1 / RFU, CARD8 / Fold change vs veh, CARD8 / RFU, STRN3 / Fold change vs veh, STRN3 / RFU, ADK / Fold change vs veh, ADK / RFU, RASSF2 / Fold change vs veh, RASSF2 / RFU, WIPF1 / Fold change vs veh, WIPF1 / RFU, LARP1B / Fold change vs veh, LARP1B / RFU, RASA1 / Fold change vs veh, RASA1 / RFU, RB1 / Fold change vs veh, RB1 / RFU, PPFIA1 / Fold change vs veh, PPFIA1 / RFU, MAT2A / Fold change vs veh, MAT2A / RFU, CCT5 / Fold change vs veh, CCT5 / RFU, WDR92 / Fold change vs veh, WDR92 / RFU, CUX1 / Fold change vs veh, CUX1 / RFU, TTC7A / Fold change vs veh, TTC7A / RFU, TMEM135 / Fold change vs veh, TMEM135 / RFU, DEPTOR / Fold change vs veh, DEPTOR / RFU, CPM / Fold change vs veh, CPM / RFU, DNAJB6 / Fold change vs veh, DNAJB6 / RFU, CACNA2D3 / Fold change vs veh, CACNA2D3 / RFU, DTX4 / Fold change vs veh, DTX4 / RFU, TFCP2 / Fold change vs veh, TFCP2 / RFU, GMCL1 /// GMCL1P1 / Fold change vs veh, GMCL1 /// GMCL1P1 / RFU, AEBP2 / Fold change vs veh, AEBP2 / RFU, SNHG1 /// SNORD22 /// SNORD25 /// SNORD26 /// SNORD27 /// SNORD28 /// SNORD29 /// SNORD31 / Fold change vs veh, SNHG1 /// SNORD22 /// SNORD25 /// SNORD26 /// SNORD27 /// SNORD28 /// SNORD29 /// SNORD31 / Fold change (Aza/veh), C12orf56 (ProbeSet 11735607_a_at) / Fold change (ACY-1035/veh), C12orf56 (ProbeSet 11735607_a_at) / Fold change (Aza/veh), FGFR1OP (ProbeSet 11751329_s_at) / Fold change (ACY-1035/veh), FGFR1OP (ProbeSet 11751329_s_at) / Fold change (Aza/veh), VPS36 (ProbeSet 11739960_a_at) / Fold change (ACY-1035/veh), VPS36 (ProbeSet 11739960_a_at) / RFU SYPL1 (11715823_x_at) / Fold change /veh SYPL1 (11715823_x_at) / RFU IGFBP7 (11715501_s_at) / Fold change /veh IGFBP7 (11715501_s_at) / RFU REEP3 (11722064_at) / Fold change /veh REEP3 (11722064_at) / RFU IGLL1 (11728026_x_at) / Fold change /veh IGLL1 (11728026_x_at): dose or concentration left out as unconfirmed
Settings: MV-4-11 cells, 48 hours

Nc1ncn([C@@H]2O[C@H](CO)[C@@H](O)[C@H]2O)c(=O)n1 [azacitidine]
Fold change /veh CYB561 (11721691_x_at): 1.09
